Experiments:
[1] = tested on: patients submitted to liver transplantation; type: in vivo, human; settings: Tacrolimus 95% CI 1.2–32.5, p = 0.029; PDN 95% CI 2.4–21, 8, p < 0.001
From the text: A total of 152 patients were included. […] Comparisons were done with Chi square tests and analysis of independent risk factors with multivariate logistic regression.

pregnancies = settings: general population: 3-4%; no reference given; cited from earlier work
From the text: Discussion: In transplanted pregnant women, hypertension and DM increase the risk of prematurity, restricted intrauterine growth (IUGR) and graft loss. […] In addition, there is a higher rate of small newborns for GI. […] As for immunosuppressants, there are few reports. Tacrolimus appears safe (prevalence of congenital malformations: 4-5% ...

[2] = tested on: patients with diabetic dyslipidemia; settings: fenofibrate in combination with simvastatin, subgroup with diabetic dyslipidemia; ref [1]; cited from earlier work
[3] = tested on: patient with DM1 and suspected hyporeninemic hypoaldosteronism; assay: Case report: fludrocortisone therapeutic test; type: in vivo, human; settings: fludrocortisone 0.2 mg/day
Protocol: Case presentation: A person, diagnosed with type 1 diabetes mellitus (DM1) for 12 years, presented progressive of walking difficulties 5 years ago, associated with dizziness, weakness, and tachycardia at rest with hypotension. […] Neuropathy Disability Score (NDS) was carried out, presenting 10 out of 10 points, classified as severe impairment. Because of an extremely significant clinical condition, with no evidence of microvascular compromise, hyporeninemic hypoaldosteronism (HH) was investigated. […] Subsequently, the patient was exposed to the exogenous ACTH test, with the administration of ACTH 250mcg intravenous and dosages of serum cortisol and aldosterone at times 0‘, 30‘, 60‘. There was an elevation of serum cortisol to levels above the limit of normality (18 mcg/dL), discarding primary adrenal insufficiency, and aldosterone levels at the lower limit of normal (attached tables). Even tests without confirmation, the use of fludrocortisone 0.2 mg/day was started as a therapeutic test.

patient = assay: Neonatal diabetes, therapeutic test with sulfonylurea, case report; type: in vivo, human; settings: oral, gradual elevation, insulin suspended; discharged on 20 mg/day
Protocol: Case presentation: A patient, presenting hypoactivity, sialorrhea and seizures 2 days ago, was admitted to a university hospital. During hospitalization they were evaluated by neurology that identified a discrete delay in neuropsychomotor development. […] Serologies for toxoplasmosis, rubella and measles negative. History of maternal varicella during gestation. […] Due to the delay in carrying out a genetic study to close the diagnosis, material was collected and sent to the genetic service and prescribed sulfonylurea (glibenclamide) as a therapeutic test. The oral medication was initiated in low doses with gradual elevation, and progressive reduction of the insulin until its suspension. […] They were discharged from the hospital using glibenclamide 20 mg/day. The patient is in outpatient follow-up at the endocrinology department of the João de Barros Barreto University Hospital. Endocrinology work team is still waiting for genetic analysis.

[4] = tested on: patient with diffuse cutaneous leishmaniasis; assay: Pentamidine-induced diabetes mellitus, case report; type: in vivo, human
Protocol: Case report: Patient two, diagnosis of diffuse cutaneous leishmaniasis in treatment since 1995 without therapeutic response after several treatments. Regular follow up with infectology, in maintenance treatment with miltefosine and in treatment with pentamidine every 30 days from January 2017, with a marked improvement of cutaneous lesions. During the follow-up, in consultation in July 2017, they complained of weight loss, polydipsia and nocturia, with serum glycemia of 901 mg/dL. Patient was referred to the hospital where they were diagnosed with a non-ketosis hyperosmolar state, with tests showing serum osmolarity of […] and glycated hemoglobin 10.31%. During hospitalization and after discharge maintained insulin use for glycemic control. Treatment of leishmaniasis with pentamidine was discontinued and will keep following-up with infectology and endocrinology.

[5] = tested on: patient with diffuse cutaneous leishmaniasis; settings: side effect, literature; no reference given; cited from earlier work
[6] = tested on: patient with metastatic lung adenocarcinoma; assay: New-onset diabetes on Nivolumab, case report (A288); type: in vivo, human
Protocol: Case report: A patient was started on Nivolumab infusions every 15 days after chemotherapy refractory progressive metastatic lung adenocarcinoma, with no prior history of diabetes. After 4 infusions, they experienced xerostomia, polyuria, polydipsia and asthenia. Upon emergency evaluation, they were started on I.V. insulin after a capillary glycemia of 600 mg/dL. They were discharged home with 10 units of NPH insulin bedtime, with a referral to the endocrinologist. […] Insulin was titrated for a total daily dose of 0.5 UI/kg. […] Nivolumab was withdrawn and no glycemic improvement nor insulin dose reductions were noted.

[7] = tested on: patient with squamous cell carcinoma of the hypopharynx; assay: Autoimmune diabetes after Nivolumab therapy, case report (A402); type: in vivo, human; settings: anti-GAD and anti-ICA positive
From the text: Case report: A patient with diagnosis of squamous cell carcinoma of the hypopharynx and pulmonary metastasis 2 years ago, after a failed treatment with conventional chemotherapy and radiotherapy, started a new class of cancer medication called Nivolumab—human immunoglobulin G4 monoclonal antibody. […] Investigation about the cause of the onset of diabetes founded positivity for diabetes antibodies, anti-GAD and anti-ICA, confirming autoimmune diabetes. Patient has been on intensive insulin therapy since then, with difficult glycemic control due to great glycemic variability.

[8] = tested on: elderly patients with T2DM; assay: Pilot randomized trial Ideg vs Iglar-U100 with CGM; type: in vivo, human
Protocol: Methods: It is a pilot study with ten patients during six weeks, randomized, prospective, controlled and open label trial. Inclusion criteria: T2DM, age over 60 years, A1C from 7 to 10%, use of NPH insulin with or without oral antidiabetic drugs. […] They were evaluated for glucose variability (GV) and HYPOs by continuous glucose monitoring (CGM) after 2 weeks of treatment with either insulin.

[9] = tested on: subjects with T2D inadequately controlled on IGlarU100 and metformin; assay: DUAL V 26-week open-label treat-to-target trial; type: in vivo, human
[10] = tested on: patients with T2DM uncontrolled on oral antidiabetic agents; assay: LixiLan-O, time to glycemic control (Kaplan–Meier), post hoc; type: in vivo, human; settings: LL-O
Protocol: The Kaplan–Meier method was used to estimate time to control, defined as time (days) to first achieve HbA1c < 7% or FPG ≤ 130 mg/dL. […] In addition to lowering FPG via iGlar, iGlarLixi lowers PPG, likely contributing to its greater efficacy in achieving glycemic control vs. iGlar alone. […] Study codes: NCT02058160 and NCT02058147. This is an ENCORE abstract previously presented at ADA 2017. Funding and editorial support provided by Sanofi (Fig. 1)

Compound: C=CC[C@@H]1/C=C(\C)C[C@H](C)C[C@H](OC)[C@H]2O[C@@](O)(C(=O)C(=O)N3CCCC[C@H]3C(=O)O[C@H](/C(C)=C/[C@@H]3CC[C@@H](O)[C@H](OC)C3)[C@H](C)[C@@H](O)CC1=O)[C@H](C)C[C@@H]2OC [Tacrolimus]
- independent risk factor for PTDM, OR [1]: 6.3
- prevalence of congenital malformations (pregnancies): 4-5%

Compound: CC(C)OC(=O)C(C)(C)Oc1ccc(C(=O)c2ccc(Cl)cc2)cc1 [fenofibrate]
- primary outcomes reduced compared to placebo [2]: about 30%

Compound: C[C@]12CCC(=O)C=C1CC[C@H]1[C@@H]3CC[C@](O)(C(=O)CO)[C@@]3(C)C[C@H](O)[C@@]12F [fludrocortisone]
- clinical course [3]: improvement of the blood pressure (BP) and dizziness

Compound: COc1ccc(Cl)cc1C(=O)NCCc1ccc(S(=O)(=O)NC(=O)NC2CCCCC2)cc1 [glibenclamide]
- clinical evolution (patient): good glycemic control and improved neurological symptoms

Compound: N=C(N)c1ccc(OCCCCCOc2ccc(C(=N)N)cc2)cc1 [pentamidine]
- glycated hemoglobin ([4]; in vivo): 10.31%
- serum osmolarity ([4]; non-ketosis hyperosmolar state): 306 mOsm/L
- serum glycemia ([4]; pentamidine every 30 days from January 2017, July 2017): 901 mg/dL
- hyperglycemia reported, cases [5]: 1-5%

Compound: Nivolumab
- capillary glycemia ([6]; after 4 infusions, every 15 days): 600 mg/dL
- C-peptide ([6]; in vivo): 0.34 ng/dL
- possible adverse event ([6]; in vivo): New-onset diabetes presenting with Diabetic Ketoacidosis and low levels of Cpeptide
- presentation after the third cycle [7]: hyperglycemia, polyuria and polydipsia

Compound: insulin glargine [Gla-100]
- 24-h mean glucose, median (minimum–maximum) ([8]; CGM after 2 weeks, n = 5 per group, P = 0.84): 169 (138–193) mg/dL
- standard deviation from the mean glucose, median (minimum–maximum) ([8]; CGM, P = 0.22): 45 (41–66)
- mean fasting SMBG after 26 weeks ([9]; NS): 5.6 mmol/L
- Mean HbA1c after 26 weeks of treatment ([9]; in vivo): 7.1%
- Mean HbA1c, baseline ([9]; in vivo): 8.2%
- Days to first HbA1c <7%, median [10]: 166.0 days
